Where “and” joins values, the source holds several entries; their conditions need not be identical. Equal entries are not always repeated. Toxic doses and inconclusive results are not listed. Rule for the calls: active = survival T/C of 150% or more; inactive = T/C below 125% in these data.
Tested on: P388 leukemia ip, CD2F1 mice, survival T/C
Assay: NCI In Vivo Anticancer Drug Screen. Data for tumor model P388 Leukemia (intraperitoneal) in CD2F1 (CDF1) mice
Settings: endpoint: median survival time, higher = longer survival
Outline: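 Mice carrying the transplanted tumor received test compound or vehicle. Survival was recorded in each group, and the value is the treated-group measurement divided by that of the vehicle-treated control group.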

[1] = dose: 50.0 mg/kg/injection, schedule: Q01DX009 (ip), vehicle: other
[2] = dose: 100.0 mg/kg/injection, schedule: Q01DX009 (ip), vehicle: other
[3] = dose: 50.0 mg/kg/injection, schedule: Q01DX009 (ip), vehicle: Klucel (hydroxypropylcellulose) (HPC)
[4] = dose: 100.0 mg/kg/injection, schedule: Q01DX009 (ip), vehicle: Klucel (hydroxypropylcellulose) (HPC)
[5] = dose: 100.0 mg/kg/injection, schedule: Q04DX002 (ip), vehicle: saline with Tween-80
[6] = dose: 200.0 mg/kg/injection, schedule: Q04DX002 (ip), vehicle: saline with Tween-80
[7] = dose: 50.0 mg/kg/injection, schedule: Q01DX005 (ip), vehicle: Klucel (hydroxypropylcellulose) (HPC)
[8] = dose: 100.0 mg/kg/injection, schedule: Q01DX005 (ip), vehicle: Klucel (hydroxypropylcellulose) (HPC)
[9] = dose: 200.0 mg/kg/injection, schedule: Q01DX005 (ip), vehicle: Klucel (hydroxypropylcellulose) (HPC)
[10] = dose: 50.0 mg/kg/injection, schedule: Q01DX005 (ip), vehicle: saline with Tween-80
[11] = dose: 100.0 mg/kg/injection, schedule: Q01DX005 (ip), vehicle: saline with Tween-80
[12] = dose: 200.0 mg/kg/injection, schedule: Q01DX005 (ip), vehicle: saline with Tween-80
[13] = dose: 12.5 mg/kg/injection, schedule: Q01DX005 (ip), vehicle: saline with Tween-80
[14] = dose: 25.0 mg/kg/injection, schedule: Q01DX005 (ip), vehicle: Klucel (hydroxypropylcellulose) (HPC)
[15] = dose: 60.0 mg/kg/injection, schedule: Q01DX005 (ip), vehicle: Klucel (hydroxypropylcellulose) (HPC)
[16] = dose: 120.0 mg/kg/injection, schedule: Q01DX005 (ip), vehicle: Klucel (hydroxypropylcellulose) (HPC)
[17] = dose: 240.0 mg/kg/injection, schedule: Q01DX005 (ip), vehicle: Klucel (hydroxypropylcellulose) (HPC)
[18] = dose: 50.0 mg/kg/injection, schedule: Q01DX009 (ip), vehicle: saline with Tween-80
[19] = dose: 100.0 mg/kg/injection, schedule: Q01DX009 (ip), vehicle: saline with Tween-80
[20] = dose: 200.0 mg/kg/injection, schedule: Q01DX009 (ip), vehicle: saline with Tween-80
[21] = dose: 50.0 mg/kg/injection, schedule: Q01DX009 (ip), vehicle: saline
[22] = dose: 100.0 mg/kg/injection, schedule: Q01DX009 (ip), vehicle: saline

Measured: T/C

CCOC(=O)C(CC)C(=O)c1ccccc1 (configuration not stated)
inactive: dose: 75.0 mg/kg/injection, schedule: Q01DX009 (ip), vehicle: saline with Tween-80 105 % of control | dose: 150.0 mg/kg/injection, schedule: Q01DX009 (ip), vehicle: saline with Tween-80 109 % of control | dose: 300.0 mg/kg/injection, schedule: Q01DX009 (ip), vehicle: saline with Tween-80 112 % of control

COc1ccc(CCNC(=O)c2ccc(OC)c(OCc3ccccc3)c2)cc1OC
inactive: dose: 25.0 mg/kg/injection, schedule: Q01DX009 (ip), vehicle: other 97 % of control | [1] 95 % of control | [2] 89 % of control | dose: 200.0 mg/kg/injection, schedule: Q01DX009 (ip), vehicle: other 89 % of control | dose: 400.0 mg/kg/injection, schedule: Q01DX009 (ip), vehicle: other 90 % of control

CCOC(=O)N1CC2C=CC1C(C(=O)OC)=C2C(=O)OC (configuration not stated)
inactive: [3] 109 % of control | [4] 113 % of control | dose: 200.0 mg/kg/injection, schedule: Q01DX009 (ip), vehicle: Klucel (hydroxypropylcellulose) (HPC) 113 % of control

Cc1ccc(N=C2C(=O)Nc3ccccc32)cc1
inactive: dose: 50.0 mg/kg/injection, schedule: Q04DX002 (ip), vehicle: saline with Tween-80 108 % of control | [5] 105 % of control | [6] 104 % of control

C=C(C)C1CCC=CC(=O)C1 (configuration not stated)
inactive: dose: 100.0 mg/kg/injection, schedule: Q04DX003 (ip), vehicle: Klucel (hydroxypropylcellulose) (HPC) 107 % of control | dose: 200.0 mg/kg/injection, schedule: Q04DX003 (ip), vehicle: Klucel (hydroxypropylcellulose) (HPC) 116 % of control

CCCCCCCCCCCCCCCCOc1ccc(S(=O)(=O)c2ccccc2)cc1[N+](=O)[O-]
inactive: dose: 25.0 mg/kg/injection, schedule: Q04DX003 (ip), vehicle: saline sonified 100 % of control | dose: 50.0 mg/kg/injection, schedule: Q04DX003 (ip), vehicle: saline sonified 100 % of control | dose: 100.0 mg/kg/injection, schedule: Q04DX003 (ip), vehicle: saline sonified 90 % of control

O=C1c2ccccc2N(Cc2cccc(F)c2)C2=NCCCC12 (configuration not stated)
inactive: [7] 113 % of control | [8] 116 % of control | [9] 100 % of control

CSC(SC)=C1CCCC(=C(SC)SC)C1=O
inactive: [10] 100 % of control | [11] 104 % of control | [12] 99 % of control

COCCN1CC(=O)N2Cc3ccccc3CN2C(=O)C1
inactive: [13] 107 % of control | dose: 25.0 mg/kg/injection, schedule: Q01DX005 (ip), vehicle: saline with Tween-80 105 % of control | [10] 100 % of control and 101 % of control | [12] 101 % of control

CC(=O)Oc1c2ccccc2cc2ccccc12
inactive: [10] 112 % of control | [11] 96 % of control | [12] 89 % of control

CCCCOc1ccc(C(C)c2cc3c(cc2OCC)OCO3)cc1 (configuration not stated)
inactive: [14] 103 % of control | [7] 103 % of control | [8] 100 % of control | [9] 104 % of control

O=C/C(Cl)=C(/Cl)C(=O)O
inactive: dose: 2.5 mg/kg/injection, schedule: Q01DX009 (ip), vehicle: saline with Tween-80 110 % of control and 123 % of control | dose: 5.0 mg/kg/injection, schedule: Q01DX009 (ip), vehicle: saline with Tween-80 117 % of control and 121 % of control | dose: 10.0 mg/kg/injection, schedule: Q01DX009 (ip), vehicle: saline with Tween-80 120 % of control and 121 % of control

CCN(CC)CCNC(=O)c1nn(C)c(=O)[nH]c1=O
inactive: [7] 108 % of control | [8] 119 % of control | [9] 99 % of control

CC(C)CC1COC(=O)C(CC(C)C)NC(=O)COCC(=O)NC(CC(C)C)C(=O)OCC(CC(C)C)NC(=O)COCC(=O)N1 (configuration not stated)
inactive: [15] 99 % of control | [16] 100 % of control | [17] 101 % of control

COC(=O)C1C2C1C1C=CC2n2c(=O)n(-c3ccccc3)c(=O)n21 (configuration not stated)
inactive: [7] 97 % of control | [8] 97 % of control | [9] 110 % of control

CC(C)=CCn1c2ccccc2c(=O)c2ccccc21
inactive: [10] 112 % of control | [11] 105 % of control | [12] 107 % of control

CCNCC1c2ccccc2-c2nc3ccccc3nc2-c2ccccc21
inactive: [5] 102 % of control | [6] 98 % of control

C[C](C)(C)[Ge]([O][Ge]([c]1ccccc1)[c]1ccccc1)([O][Ge]([c]1ccccc1)[c]1ccccc1)[C](C)(C)C
inactive: dose: 15.0 mg/kg/injection, schedule: Q01DX005 (ip), vehicle: saline with Tween-80 103 % of control | dose: 30.0 mg/kg/injection, schedule: Q01DX005 (ip), vehicle: saline with Tween-80 103 % of control | dose: 60.0 mg/kg/injection, schedule: Q01DX005 (ip), vehicle: saline with Tween-80 110 % of control and 117 % of control | dose: 120.0 mg/kg/injection, schedule: Q01DX005 (ip), vehicle: saline with Tween-80 117 % of control

C=CCOP1(c2ccccc2)(c2ccccc2)NC(c2ccccc2)(c2ccccc2)C(C(=O)OC)=C1C(=O)OC
inactive: [7] 90 % of control | [8] 91 % of control | [9] 92 % of control

O=C(O)c1cc(-c2cccc3ccccc23)nc2cc3ccccc3cc12
inactive: [18] 106 % of control and 94 % of control | [19] 100 % of control | [20] 102 % of control | dose: 400.0 mg/kg/injection, schedule: Q01DX009 (ip), vehicle: saline with Tween-80 118 % of control

CCCCC/C(=C/C=C/c1ccc(Cl)cc1)CN(C)C
inactive: [3] 111 % of control | [4] 110 % of control

C=CCc1ccc(O)c(OC)c1
inactive: [1] 101 % of control | [2] 107 % of control

COc1cc2c(cc1OC)-c1[nH]ncc1CC2
inactive: [18] 101 % of control | [19] 101 % of control | [20] 106 % of control

COC(=O)C(S)(NC(C)=O)C(C)C (configuration not stated)
inactive: [21] 102 % of control | [22] 98 % of control | dose: 200.0 mg/kg/injection, schedule: Q01DX009 (ip), vehicle: saline 104 % of control

CCN1CCc2cccc3c2C1c1ccccc1CC3 (configuration not stated)
inactive: dose: 50.0 mg/kg/injection, schedule: Q01DX001 (ip), vehicle: saline with Tween-80 100 % of control | dose: 100.0 mg/kg/injection, schedule: Q01DX001 (ip), vehicle: saline with Tween-80 101 % of control

CC1=CC(C)(C)Nc2ccc(CSc3ccccc3)cc21
inactive: dose: 50.0 mg/kg/injection, schedule: Q01DX009 (ip), vehicle: DMSO 111 % of control | [18] 104 % of control | [19] 110 % of control | [20] 96 % of control

CCNC(=O)c1nnn2c1nc(N)c1cc(Cl)ccc12
inactive: dose: 12.5 mg/kg/injection, schedule: Q01DX005 (ip), vehicle: Klucel (hydroxypropylcellulose) (HPC) 96 % of control | [14] 96 % of control | [7] 95 % of control | [8] 94 % of control | [9] 88 % of control

C=CC#N
inactive: [18] 99 % of control | [19] 95 % of control | [20] 90 % of control

N/C(Cc1noc2ccc(F)cc12)=N\O
inactive: [21] 107 % of control | [22] 107 % of control

CN1C(=O)N(C)C2(C#N)CC2([N+](=O)[O-])C1=O (configuration not stated)
inactive: dose: 12.5 mg/kg/injection, schedule: Q01DX009 (ip), vehicle: saline with Tween-80 89 % of control | dose: 25.0 mg/kg/injection, schedule: Q01DX009 (ip), vehicle: saline with Tween-80 90 % of control

NC(=O)Cc1nc(O)cs1
inactive: [15] 102 % of control | [16] 101 % of control | [17] 109 % of control

C[C@@H]1C[C@@H]2c3cccc4[nH]cc(c34)C[C@H]2N(C)C1
inactive: dose: 3.12 mg/kg/injection, schedule: Q01DX005 (ip), vehicle: saline with Tween-80 98 % of control | dose: 6.25 mg/kg/injection, schedule: Q01DX005 (ip), vehicle: saline with Tween-80 98 % of control | [13] 100 % of control

CCOC(=O)CON1C(=O)CCC1=O
inactive: dose: 25.0 mg/kg/injection, schedule: Q01DX005 (ip), vehicle: saline 102 % of control | dose: 50.0 mg/kg/injection, schedule: Q01DX005 (ip), vehicle: saline 102 % of control | dose: 100.0 mg/kg/injection, schedule: Q01DX005 (ip), vehicle: saline 100 % of control | dose: 200.0 mg/kg/injection, schedule: Q01DX005 (ip), vehicle: saline 105 % of control

Source: PubChem BioAssay AID330 (DTP/NCI, 2004)
